Where a name gives a salt, the structure may show the parent alone.
Each molecule was assayed against Human BACE-1 (Homo sapiens, UniProt P56817) (assay: Test 1: Inhibition of Human BACE-1). Settings: Test 1; recombinant BACE-1 (extracellular domain), acetate buffer pH 4.5, 1 hour with test compound at room temperature, fluorescence-quenched peptide substrate; read-out: Bace IC50.
Format: biochemical

Sequence of Human BACE-1 (P56817 46-457 limits assumed): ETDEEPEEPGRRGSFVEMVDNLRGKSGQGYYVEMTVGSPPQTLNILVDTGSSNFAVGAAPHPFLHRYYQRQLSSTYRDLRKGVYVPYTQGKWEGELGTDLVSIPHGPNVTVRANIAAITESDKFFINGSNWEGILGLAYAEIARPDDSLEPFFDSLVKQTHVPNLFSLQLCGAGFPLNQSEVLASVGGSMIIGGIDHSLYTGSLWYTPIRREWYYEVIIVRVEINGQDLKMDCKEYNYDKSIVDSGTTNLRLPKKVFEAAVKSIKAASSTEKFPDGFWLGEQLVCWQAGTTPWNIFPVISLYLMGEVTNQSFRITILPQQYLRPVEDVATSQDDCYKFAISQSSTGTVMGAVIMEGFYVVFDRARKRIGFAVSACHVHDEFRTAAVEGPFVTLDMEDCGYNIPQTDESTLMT

Structure (SMILES)	IC50 [nM]
NC1=NC(c2cccc(NC(=O)c3ncc(Br)cc3O)c2)(C(F)F)COC1 (stereo not drawn) [Example 108, 5-Bromo-3-hydroxy-pyridine-2-carboxylic acid [3-(5-amino-3-difluoromethyl-3,6-dihydro-2H-[1,4]oxazin-3-yl)-phenyl]-amide hydrochloride]	28
COCCOc1cnc(C(=O)Nc2cccc(C3(C(F)F)COCC(N)=N3)c2)cn1 (stereo not drawn) [Example 109, hydrochloride]	1200
NC1=NC(c2cccc(NC(=O)c3cnc(C(F)F)cn3)c2)(C(F)F)COC1 (stereo not drawn) [Example 110, 5-Difluoromethyl-pyrazine-2-carboxylic acid [3-(5-amino-3-difluoromethyl-3,6-dihydro-2H-[1,4]oxazin-3-yl)-phenyl]-amide hydrochloride]	1900
NC1=N[C@@](c2cc(NC(=O)c3ncc(Cl)cc3Cl)ccc2F)(C(F)F)COC1 [Example 111, 3,5-Dichloro-pyridine-2-carboxylic acid [3-((R)-5-amino-3-difluoromethyl-3,6-dihydro-2H-[1,4]oxazin-3-yl)-4-fluoro-phenyl]-amide hydrochloride]	25
NC1=N[C@@](c2cc(NC(=O)c3ncc(F)cc3F)ccc2F)(C(F)F)COC1 [Example 113, 3,5-Difluoro-pyridine-2-carboxylic acid [3-((R)-5-amino-3-difluoromethyl-3,6-dihydro-2H-[1,4]oxazin-3-yl)-4-fluoro-phenyl]-amide hydrochloride]	120
Cc1c(C(=O)Nc2ccc(F)c([C@]3(C(F)F)COCC(N)=N3)c2)oc2ccc(Br)cc12 [Example 114, 5-Bromo-3-methyl-benzofuran-2-carboxylic acid [3-((R)-5-amino-3-difluoromethyl-3,6-dihydro-2H-[1,4]oxazin-3-yl)-4-fluoro-phenyl]-amide hydrochloride]	6
Cl.[2H]c1nc(C(=O)Nc2ccc(F)c([C@]3(C(F)F)COCC(N)=N3)c2)c(C([2H])([2H])[2H])c([2H])c1Cl [Example 115, 5-Chloro-4,6-dideutero-3-trideuteromethyl-pyridine-2-carboxylic acid [3-((R)-5-amino-3-difluoromethyl-3,6-dihydro-2H-[1,4]oxazin-3-yl)-4-fluoro-phenyl]-amide hydrochloride]	6
NC1=N[C@@](c2cc(NC(=O)c3ncc(Br)cc3Cl)ccc2F)(C(F)F)COC1 [Example 117, 5-Bromo-3-chloro-pyridine-2-carboxylic acid [3-((R)-5-amino-3-difluoromethyl-3,6-dihydro-2H-[1,4]oxazin-3-yl)-4-fluoro-phenyl]-amide hydrochloride]	18
NC1=N[C@@](c2cc(NC(=O)c3ccc(Br)cn3)ccc2F)(C(F)F)COC1 [Example 118, 5-Bromo-pyridine-2-carboxylic acid [3-((R)-5-amino-3-difluoromethyl-3,6-dihydro-2H-[1,4]oxazin-3-yl)-4-fluoro-phenyl]-amide hydrochloride]	14
NC1=N[C@@](c2cc(NC(=O)c3ncc(Br)cc3O)ccc2F)(C(F)F)COC1 [Example 119, 5-Bromo-3-hydroxy-pyridine-2-carboxylic acid [3-((R)-5-amino-3-difluoromethyl-3,6-dihydro-2H-[1,4]oxazin-3-yl)-4-fluoro-phenyl]-amide hydrochloride]	10
CCOc1ccc(C(=O)Nc2ccc(F)c([C@]3(C(F)F)COCC(N)=N3)c2)nc1 [Example 120, 5-Ethoxy-pyridine-2-carboxylic acid [3-((R)-5-amino-3-difluoromethyl-3,6-dihydro-2H-[1,4]oxazin-3-yl)-4-fluoro-phenyl]-amide]	180
NC1=N[C@@](c2cc(NC(=O)c3ncc(Br)cn3)ccc2F)(C(F)F)COC1 [Example 121, 5-Bromo-pyrimidine-2-carboxylic acid [3-((R)-5-amino-3-difluoromethyl-3,6-dihydro-2H-[1,4]oxazin-3-yl)-4-fluoro-phenyl]-amide hydrochloride]	36
NC1=N[C@@](c2cc(NC(=O)c3cnc(C(F)F)cn3)ccc2F)(C(F)F)COC1 [Example 122, 5-Difluoromethyl-pyrazine-2-carboxylic acid [3-((R)-5-amino-3-difluoromethyl-3,6-dihydro-2H-[1,4]oxazin-3-yl)-4-fluoro-phenyl]-amide hydrochloride]	200
NC1=N[C@@](c2cc(NC(=O)c3cnc(OCC(F)F)cn3)ccc2F)(C(F)F)COC1 [Example 123, 5-(2,2-Difluoro-ethoxy)-pyrazine-2-carboxylic acid [3-((R)-5-amino-3-difluoromethyl-3,6-dihydro-2H-[1,4]oxazin-3-yl)-4-fluoro-phenyl]-amide hydrochloride]	97
NC1=N[C@@](c2cc(NC(=O)c3cnc(OCC(F)(F)F)cn3)ccc2F)(C(F)F)COC1 [Example 124, 5-(2,2,2-Trifluoro-ethoxy)-pyrazine-2-carboxylic acid [3-((R)-5-amino-3-difluoromethyl-3,6-dihydro-2H-[1,4]oxazin-3-yl)-4-fluoro-phenyl]-amide hydrochloride]	25
NC1=N[C@@](c2cc(NC(=O)c3cc(Br)co3)ccc2F)(C(F)F)COC1 [Example 125, 4-Bromo-furan-2-carboxylic acid [3-((R)-5-amino-3-difluoromethyl-3,6-dihydro-2H-[1,4]oxazin-3-yl)-4-fluoro-phenyl]-amide hydrochloride]	78
NC1=N[C@@](c2cc(NC(=O)c3cc4ccccn4n3)ccc2F)(C(F)F)COC1 [Example 126, Pyrazolo[1,5-a]pyridine-2-carboxylic acid [3-((R)-5-amino-3 difluoromethyl-3,6-dihydro-2H [1,4]oxazin-3-yl)-4-fluoro-phenyl]-amide hydrochloride]	740
Cc1nc(C(=O)Nc2ccc(F)c([C@]3(C(F)F)COCC(N)=N3)c2)co1 [Example 127, 2-Methyl-oxazole-4-carboxylic acid [3-((R)-5-amino-3-difluoromethyl-3,6-dihydro-2H-[1,4]oxazin-3-yl)-4-fluoro-phenyl]-amide hydrochloride]	98
Cc1nc(C(=O)Nc2ccc(F)c([C@]3(C(F)F)COCC(N)=N3)c2)c(C)o1 [Example 128, 2,5-Dimethyl-oxazole-4-carboxylic acid [3-((R)-5-amino-3-difluoromethyl-3,6-dihydro-2H-[1,4]oxazin-3-yl)-4-fluoro-phenyl]-amide]	170
COc1cc(Br)cnc1C(=O)Nc1ccc(F)c([C@]2(C(F)F)COCC(N)=N2)c1 [Example 130, 5-Bromo-3-methoxy-pyridine-2-carboxylic acid [3-((R)-5-amino-3-difluoromethyl-3,6-dihydro-2H-[1,4]oxazin-3-yl)-4-fluoro-phenyl]-amide hydrochloride]	93
CCc1nc(C(=O)Nc2ccc(F)c([C@]3(C(F)F)COCC(N)=N3)c2)co1 [Example 131, 2-Ethyl-oxazole-4-carboxylic acid [3-((R)-5-amino-3-difluoromethyl-3,6-dihydro-2H-[1,4]oxazin-3-yl)-4-fluoro-phenyl]-amide hydrochloride]	330
NC1=N[C@@](c2cc(NC(=O)c3ccc(C(F)F)cn3)ccc2F)(C(F)F)COC1 [Example 132, 5-Difluoromethyl-pyridine-2-carboxylic acid [3-((R)-5-amino-3-difluoromethyl-3,6-dihydro-2H-[1,4]oxazin-3-yl)-4-fluoro-phenyl]-amide hydrochloride]	87
Cn1ccnc1C(=O)Nc1ccc(F)c([C@]2(C(F)F)COCC(N)=N2)c1 [Example 133, 1-Methyl-1H-imidazole-2 carboxylic acid [3-((R)-5-amino-3 difluoromethyl-3,6-dihydro-2H [1,4]oxazin-3-yl)-4-fluoro-phenyl]-amide hydrochloride]	1000
NC1=N[C@@](c2cc(NC(=O)c3ccc(O)nn3)ccc2F)(C(F)F)COC1 [Example 134, 6-Hydroxy-pyridazine-3-carboxylic acid [3-((R)-5-amino-3-difluoromethyl-3,6-dihydro-2H-[1,4]oxazin-3-yl)-4-fluoro-phenyl]-amide hydrochloride]	260
COCCOc1cnc(C(=O)Nc2ccc(F)c([C@]3(C(F)F)COCC(N)=N3)c2)cn1 [Example 135, 5-(2-Methoxy-ethoxy)-pyrazine-2-carboxylic acid [3-((R)-5-amino-3-difluoromethyl-3,6-dihydro-2H-[1,4]oxazin-3-yl)-4-fluoro-phenyl]-amide hydrochloride]	45
NC1=N[C@@](c2cc(NC(=O)c3cnc(OCCF)cn3)ccc2F)(C(F)F)COC1 [Example 136, 5-(2-Fluoro-ethoxy)-pyrazine-2-carboxylic acid [3-((R)-5-amino-3-difluoromethyl-3,6-dihydro-2H-[1,4]oxazin-3-yl)-4-fluoro-phenyl]-amide hydrochloride]	130
NC1=N[C@@](c2cc(NC(=O)c3ccc(Cl)cn3)ccc2F)(C(F)F)COC1 [Example 137, 5-Chloro-pyridine-2-carboxylic acid [3-((R)-5-amino-3-difluoromethyl-3,6-dihydro-2H-[1,4]oxazin-3-yl)-4-fluoro-phenyl]-amide hydrochloride]	30
NC1=N[C@@](c2cc(NC(=O)c3ccc(OC(F)F)cn3)ccc2F)(C(F)F)COC1 [Example 138, 5-Difluoromethoxy-pyridine-2-carboxylic acid [3-((R)-5-amino-3-difluoromethyl-3,6-dihydro-2H-[1,4]oxazin-3-yl)-4-fluoro-phenyl]-amide hydrochloride]	42
NC1=N[C@@](c2cc(NC(=O)c3ccc(OCF)cn3)ccc2F)(C(F)F)COC1 [Example 139, 5-Fluoromethoxy-pyridine-2-carboxylic acid [3-((R)-5-amino-3-difluoromethyl-3,6-dihydro-2H-[1,4]oxazin-3-yl)-4-fluoro-phenyl]-amide]	75
NC1=N[C@@](c2cc(NC(=O)c3ncc(Cl)cc3F)ccc2F)(C(F)F)COC1 [Example 140, 5-Chloro-3-fluoro-pyridine-2-carboxylic acid [3-((R)-5-amino-3-difluoromethyl-3,6-dihydro-2H-[1,4]oxazin-3-yl)-4-fluoro-phenyl]-amide]	43

From patent publication US20120172359A1 (NOVARTIS AG, priority 2010, published 2012)
